Results on two substances are retold here after patent US20100113363A1, “Use of GLP-1 Peptides” (Novo Nordisk A/S, priority 1996, published 2010).

For assay [1] the following is noted: rats, Tang-Christensen et al., cited from earlier work.
Assay [2] is described as follows: iv infusion of GLP-1(7-36)amide in healthy human volunteers: visual analogue scale ratings and ad libitum lunch energy intake. It is filed as in vivo. Particulars: iv infusion 50 pmol/(kg·h). The source says: Healthy human volunteers (20 subjects) were in a double-blind crossover trial given an iv infusion of 50 pmol/(kg·h) of GLP-1(7-36)amide or saline on separate, but otherwise identical experimental days. The infusion was started at 9.00 and lasted until 15.00. At 9.45 the subjects received a fixed amount of breakfast and at 14.15 they had lunch of an identical composition but ad libitum. The subjects rated their feeling of satiety, hunger, fullness and appetite on a visual analogue scale every half hour. The results are given below:
The energy intake of each subjects was measured. The intakes were 3.9 MJ with GLP-1 and 4.3 MJ with Saline resulting in a p-value of 0.009.

The conditions of assay [3]: rats, Turton et al., cited from earlier work.
Assay [4] can be described thus: Appetite suppression in mice: sucrose consumption, tested immediately after intraperitoneal injection. Type of assay: in vivo. To be noted: 85 micrograms (3.4 mg/kg) intraperitoneally, 10 minute period, p-value 0.002. Here is the method: Mice were deprived of their normal food for two days and given free access to a 20% sucrose solution on the first day of food deprivation. After the two day food deprivation period, the mice were injected intraperitoneally with 0.5ml of a solution containing the test substance. Immediately after injection, individual mice were placed in one of eight 15 cm square test boxes with a stainless steel grid floor and a glass drinking tube which projected into the box. […] Consumption of the sucrose solution was measured over a 10 minute period by electronically recording the total amount of contact with the sucrose solution during the test session. The degree of appetite suppression produced by a given test substance was determined by statistical comparison of the mean duration of sucrose consumption by control (vehicle treated) mice with that of mice treated with a test substance. The degree of appetite suppression in a treated group of mice was expressed as percent difference between the test and control group's response duration means. […]

Assay [5] in a line: Suppression of appetite in mice by subcutaneously injected synthetic GLP-1(7-36)amide: Complan consumption. It is filed as in vivo. Particulars: p<0.001. Here is the method:
The test method was as described in Example 3 except that the mice were pre-exposed to formula milk (Complan®—a nutritionally complete infant milk substitute) for one day, then fasted […]. On the test day, consumption of Complan® was measured for each mouse during a 10 min period.
Mice were tested for appetite suppression by subcutaneous injection of GLP-1(7-36)amide dissolved in phosphate buffered saline.

[6] abbreviates: administered intracerebroventricularly.

Like-named read-outs stand apart in the source and are kept apart here. No end group written: not given here.

As for “GLP-1(1-36)amide (HDEFERHAEGTFTSDVSSYLEGQAAKEFIAWLVKGR-NH2; UniProt P01275 92-127, looked up, fragment) [fragment 1-36 of GLP-1, C-terminal amide]”, the “effect on food intake” value in assay [1] (route not stated) is reported as “no effect”.
GLP-1(7-36)amide came in with an energy intake in assay [2] (ad libitum lunch, saline 4.3 MJ, p-value 0.009) of 3.9 mJ. In addition, the “Satiety (visual analogue scale)” value in assay [2] (versus saline, p = 0.006) is “GLP-1 > Saline, p = 0.006”. Also, the “Appetite (visual analogue scale)” value in assay [2] (versus saline, p = 0.007) is on record as “GLP-1 < Saline, p = 0.007”. The “Hunger (visual analogue scale)” value in assay [2] (versus saline, p = 0.007) is listed as “GLP-1 < Saline, p = 0.007”. Further, the “Fullness (visual analogue scale)” value in assay [2] (versus saline, p = 0.010) is “GLP-1 > Saline, p = 0.010”. Besides, the “effect on food intake” value is “profound effect” in assay [1] (setting [6]), “no significant effect” in assay [1] (peripherally administered), “profound effect” in assay [3] (setting [6]) and “inactive” in assay [3] (peripheral administration). For the same substance, in assay [4], the “suppression of sucrose consumption” value was determined as 60%. This substance also had a suppression of feeding in assay [5] (1 mg/kg subcutaneous, 30 min after injection) of 45%. Also, the “maximum effect, suppression of feeding” value in assay [5] (20 mg/kg subcutaneous (highest dose tested)) worked out at 60%.
